Assay results taken from patent US11578084B2, “Condensed ring compounds having dopamine D3 receptor antagonistic effect” (Shionogi & Co., Ltd., priority 2018, dated 2023).

Experiments:
[1] = molecular target: human recombinant dopamine D3 receptor (Homo sapiens (Human), UniProt P35462); test: Test of binding inhibition for dopamine D3 receptor ([3H]-Methylspiperone SPA); conditions: Jump-In HEK cell membranes, 2 nM [3H]-Methylspiperone, 120 min at 25° C.; read-out: hD3_Ki
How it was run: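 SPA radioligand binding on Jump-In HEK membranes expressing human D3 receptor (4 µg/well) with 2 nM [3H]-methylspiperone (final), incubated 120 min at 25 °C. Non-specific binding defined with 10 µM butaclamol. Percent inhibition computed against total and non-specific binding; Ki from dose-response curves.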

[2] = molecular target: human recombinant dopamine D2 receptor (Homo sapiens (Human), UniProt P14416); test: Test of binding inhibition for dopamine D2 receptor ([3H]-Methylspiperone SPA); conditions: Jump-In HEK cell membranes, 1.2 nM [3H]-Methylspiperone, 120 min at 25° C.; read-out: hD2_Ki
Chain of human recombinant dopamine D2 receptor (P14416 whole entry): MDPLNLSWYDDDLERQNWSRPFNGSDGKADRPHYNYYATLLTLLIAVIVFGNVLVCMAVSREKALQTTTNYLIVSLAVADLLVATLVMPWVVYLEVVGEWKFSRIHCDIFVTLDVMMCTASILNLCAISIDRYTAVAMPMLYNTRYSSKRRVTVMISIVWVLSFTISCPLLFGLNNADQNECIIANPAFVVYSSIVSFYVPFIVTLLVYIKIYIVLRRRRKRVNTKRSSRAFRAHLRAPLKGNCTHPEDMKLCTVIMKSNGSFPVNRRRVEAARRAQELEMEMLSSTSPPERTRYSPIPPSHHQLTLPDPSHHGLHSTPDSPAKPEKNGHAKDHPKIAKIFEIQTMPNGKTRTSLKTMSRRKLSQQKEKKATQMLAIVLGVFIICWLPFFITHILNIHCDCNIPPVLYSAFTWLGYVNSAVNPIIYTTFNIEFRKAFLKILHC
How it was run: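 Incubation was 120 min at 25° C. with human recombinant D2 membranes from Jump-In HEK cells (2 μg/well), WGA SPA beads (0.2 mg/well) and [3H]-Methylspiperone as radioligand.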

hERG channel (IKr) = hERG channel (IKr) (Homo sapiens (Human), UniProt Q12809); test: hERG test (whole cell patch clamp, IKr); format: cell-based; conditions: human, CHO cells expressing hERG channel, pH 7.4, 3 μM, tail peak current
Chain of hERG channel (IKr) (Q12809 whole entry): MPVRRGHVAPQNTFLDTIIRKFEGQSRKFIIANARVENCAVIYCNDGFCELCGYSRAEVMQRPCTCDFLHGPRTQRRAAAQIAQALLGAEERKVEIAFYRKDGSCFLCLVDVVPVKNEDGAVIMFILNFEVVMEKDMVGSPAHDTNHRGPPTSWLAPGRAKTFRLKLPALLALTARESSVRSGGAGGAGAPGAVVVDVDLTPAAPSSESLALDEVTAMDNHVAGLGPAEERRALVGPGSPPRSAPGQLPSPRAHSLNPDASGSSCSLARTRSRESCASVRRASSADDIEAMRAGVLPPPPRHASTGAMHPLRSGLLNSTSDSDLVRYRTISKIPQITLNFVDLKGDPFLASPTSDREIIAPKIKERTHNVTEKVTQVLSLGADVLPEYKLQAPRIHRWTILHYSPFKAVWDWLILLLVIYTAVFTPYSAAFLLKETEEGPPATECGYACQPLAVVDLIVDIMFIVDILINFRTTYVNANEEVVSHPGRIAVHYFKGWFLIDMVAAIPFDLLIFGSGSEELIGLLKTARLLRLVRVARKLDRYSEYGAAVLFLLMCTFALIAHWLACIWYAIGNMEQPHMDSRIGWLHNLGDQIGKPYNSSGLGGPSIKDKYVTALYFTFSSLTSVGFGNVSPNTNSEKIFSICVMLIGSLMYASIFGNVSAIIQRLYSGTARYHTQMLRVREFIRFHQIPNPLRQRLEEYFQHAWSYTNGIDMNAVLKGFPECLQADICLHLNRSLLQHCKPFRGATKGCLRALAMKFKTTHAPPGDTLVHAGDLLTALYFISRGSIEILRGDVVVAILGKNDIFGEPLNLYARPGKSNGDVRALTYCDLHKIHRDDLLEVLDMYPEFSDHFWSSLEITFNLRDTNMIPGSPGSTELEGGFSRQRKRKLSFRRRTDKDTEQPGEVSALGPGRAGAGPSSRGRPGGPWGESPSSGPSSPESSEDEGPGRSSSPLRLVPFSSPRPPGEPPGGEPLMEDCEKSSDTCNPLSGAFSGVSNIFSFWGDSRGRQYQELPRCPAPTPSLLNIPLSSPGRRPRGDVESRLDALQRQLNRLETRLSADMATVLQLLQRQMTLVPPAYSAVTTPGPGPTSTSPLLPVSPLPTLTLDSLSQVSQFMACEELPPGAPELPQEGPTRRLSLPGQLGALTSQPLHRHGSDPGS
Text: Test Example 10: hERG Test
For the purpose of assessing risk of an electrocardiogram QT interval prolongation of the compound of the present invention, effects of the compound of the present invention on delayed rectifier K+ current (IKr), which plays an important role in the ventricular repolarization process, was studied using CHO cells expressing human ether-a-go-go related gene (hERG) channel.
After a cell was retained at a membrane potential of −80 mV by whole cell patch clamp method using an automated patch clamp system (QPatch; Sophion Bioscience A/S) and gave a leak potential of −50 mV, IKr induced by depolarization pulse stimulation at +20 mV for 2 seconds and, further, repolarization pulse stimulation at −50 mV for 2 seconds, was recorded. After the generated current was stabilized, extracellular solution (NaCl: 145 mmol/L, KCl: 4 mmol/L, CaCl2): 2 mmol/L, MgCl2: 1 mmol/L, glucose: 10 mmol/L, HEPES (4-(2-hydroxyethyl)-1-piperazineethanesulfonic acid): 10 mmol/L, pH=7.4), in which the compound of the present invention had been dissolved at an objective concentration in the extracellular solution, was applied to the cell at room temperature for 7 minutes or more. From the recording IKr, an absolute value of the tail peak current was measured based on the current value at the resting membrane potential using analysis software (QPatch Assay software; Sophion Bioscience A/S). Further, the % inhibition of tail peak current for the compound of the present invention relative to the tail peak current after application of the solution (0.1% dimethyl sulfoxide solution) was calculated to assess influence of the compound of the present invention on IKr.

Chain of human recombinant dopamine D3 receptor (P35462 whole entry): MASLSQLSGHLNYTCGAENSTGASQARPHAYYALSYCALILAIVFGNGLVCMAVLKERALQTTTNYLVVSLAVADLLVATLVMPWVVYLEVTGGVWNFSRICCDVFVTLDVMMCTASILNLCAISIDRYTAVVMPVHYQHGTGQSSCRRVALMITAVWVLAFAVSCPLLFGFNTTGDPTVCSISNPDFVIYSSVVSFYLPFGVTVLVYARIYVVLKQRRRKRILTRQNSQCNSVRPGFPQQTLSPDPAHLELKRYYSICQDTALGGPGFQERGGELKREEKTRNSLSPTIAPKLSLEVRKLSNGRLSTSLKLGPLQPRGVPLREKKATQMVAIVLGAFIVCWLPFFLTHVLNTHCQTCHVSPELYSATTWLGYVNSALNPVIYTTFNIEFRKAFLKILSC

| Compound | Ki [1] [nM] | Ki [2] [nM] | inhibition at 3 µM (hERG channel (IKr)) [%] |
| --- | --- | --- | --- |
| Cc1ncc(OCC(=O)N[C@H]2CC[C@](F)(CCN3CCc4ccc(OCC(F)F)nc4CC3)CC2)cn1 [Example I-030] | 0.3 | 610 | 26.1 |
| Cn1cc(CC(=O)N[C@H]2CC[C@H](CCN3CCc4ccc(OC5CCC5)nc4CC3)CC2)cn1 [Example I-032] | 0.48 | > 2200 | 31.9 |
| Cc1ncc(CC(=O)N[C@H]2CC[C@H](CCN3CCc4ccc(OC5CCC5)nc4CC3)CC2)o1 [Example I-033] | 0.78 | > 2200 | 12.2 |
| Cc1ncccc1C(=O)N[C@H]1CC[C@H](CCN2CCc3nc(OCC(C)(F)F)sc3CC2)CC1 [Example I-034] | 0.36 | 560 | 34.3 |
| Cn1cc2c(C(=O)N[C@H]3CC[C@H](CCN4CCc5sc([C@H]6C[C@@H](F)C6)nc5C4)CC3)cccc2n1 [Example I-035] | 0.18 | 210 | 16 |
| Cc1cnc(CC(=O)N[C@H]2CC[C@H](CCN3CCc4nc(OCC(C)(F)F)sc4CC3)CC2)o1 [Example I-036] | 0.54 | 910 | 29.8 |
| Cc1ncc(/C=C/C(=O)N[C@H]2CC[C@H](CCN3CCc4nc(OCC(C)(F)F)sc4CC3)CC2)cn1 [Example I-037] | 0.097 | 240 | 28 |
| Cc1cnc(CC(=O)N[C@H]2CC[C@](F)(CCN3CCc4nc(OCC(F)F)sc4CC3)CC2)o1 [Example I-038] | 0.81 | > 1700 | 21.4 |
| Cc1nc(CC(=O)N[C@H]2CC[C@](F)(CCN3CCc4nc(OCC(F)F)sc4CC3)CC2)no1 [Example I-039] | 1 | 1200 | 22.3 |
| Cc1nnc(CC(=O)N[C@H]2CC[C@](F)(CCN3CCc4nc(OCC(F)F)sc4CC3)CC2)s1 [Example I-040] | 0.46 | 890 | 23.2 |
| Cc1cnc(CC(=O)N[C@H]2CC[C@H](CCN3CCc4sc(C5CC(F)(F)C5)nc4C3)CC2)o1 [Example I-041] | 0.17 | 620 | 18.1 |
| Cc1ncccc1C(=O)N[C@H]1CC[C@](F)(CCN2CCc3nc(OCC(C)(F)F)sc3CC2)CC1 [Example I-042] | 0.57 | 1000 | 10.8 |
| Cc1ncc(CC(=O)N[C@H]2CC[C@](F)(CCN3CCc4nc(OCC(C)(F)F)sc4CC3)CC2)o1 [Example I-043] | 0.12 | 970 | 20.7 |
| Cc1ncc(OCC(=O)N[C@H]2CC[C@](F)(CCN3CCc4nc(OCC(C)(F)F)sc4CC3)CC2)cn1 [Example I-044] | 0.14 | 610 | 23.7 |
| Cc1cnc(OCC(=O)N[C@H]2CC[C@H](CCN3CCc4sc(OCC(C)(F)F)nc4C3)CC2)cn1 [Example I-046] | 0.34 | 500 | 14.3 |
| O=C(N[C@H]1CC[C@H](CCN2CCc3nc(OCC(F)(F)F)sc3CC2)CC1)c1cccnc1C(F)F [Example I-048] | 0.048 | 390 | 3.52 |
| Cn1c(C(=O)N[C@H]2CC[C@H](CCN3CCc4nc(OCC(C)(F)F)sc4CC3)CC2)cccc1=O [Example I-056] | 0.24 | 490 | 10.7 |
| Cn1cc(CC(=O)N[C@H]2CC[C@](F)(CCN3CCc4nc(OCC(F)F)sc4CC3)CC2)cn1 [Example I-059] | 0.69 | > 1700 | 6.72 |
| Cc1ncc(CC(=O)N[C@H]2CC[C@](F)(CCN3CCc4nc(OCC(F)F)sc4CC3)CC2)o1 [Example I-060] | 0.59 | 1400 | 17.7 |
| Cn1cc2ccc(C(=O)N[C@H]3CC[C@H](CCN4CCc5nc(OCC(C)(F)F)sc5CC4)OC3)cc2n1 [Example I-066] | 0.37 | 770 | 14.3 |
| Cc1ncc(OCC(=O)N[C@H]2CC[C@H](CCN3CCc4sc(C5CC(F)(F)C5)nc4C3)CC2)cn1 [Example I-069] | 0.49 | 670 | 34.2 |
